According to patent publication US20220175820A1 (PIERRE FABRE DERMO-COSMETIQUE, priority 2019, published 2022):
Marks after values point to notes of the source that are not given here.

Experiments:
Format in all cases: cell-based
IL-8 = IL-8 production by stimulated normal human epidermal keratinocytes (atopic dermatitis model, ELISA); conditions: bafilomycin 30 nM; stimulation by Poly I:C, PamC3, IL-4 and IL-13
Procedure: (§1) The study is performed on normal human epidermal keratinocytes cultured under standard conditions (37° C., 5% CO2). The culture medium is standard (keratinocyte-SFM supplemented with 0.25 ng/ml epidermal growth factor (EGF), 25 μg/ml pituitary extract and 25 μg/ml gentamycin). The test medium is the same without growth factor.
(§2) To simulate an atopic dermatitis environment, keratinocytes are preincubated for 1 hour in the medium with or without (control) the compounds to be tested, the vehicle (water) or the positive control, bafilomycin (macrolide family) at 30 nM. […] After this preincubation, keratinocytes are stimulated for 24 hours by a mixture of TLR ligands (Poly I:C and PamC3) and inflammatory cytokines (IL-4 and IL-13) added to the cells. An unstimulated control condition is also done at the same time. The cells are incubated for 24 hours.
(§3) The culture supernatants are collected, centrifuged and frozen at −80° C. TSLP and IL-8 are quantified by ELISA.
(§4) Three independent experiments are conducted. Statistical analysis is determined by one-way ANOVA followed by Dunnett's post-hoc test.

TSLP = TSLP production by stimulated normal human epidermal keratinocytes (atopic dermatitis model, ELISA); conditions: bafilomycin 30 nM; stimulation by Poly I:C, PamC3, IL-4 and IL-13
Procedure: as §1, §2, §3, §4

KLK7: type 7 kallikrein = assay: RT-qPCR gene expression in normal human keratinocytes: KLK7; conditions: calcium chloride 1.5 mM, 48 h
Procedure: (§5) The effects of this compound were assessed via the RT-qPCR technique with the analysis of 12 target genes chosen for their importance in keratinocyte differentiation, antimicrobial defence and hydration. Calcium chloride (tested at 1.5 mM) is used as the reference compound (physiological agent inducing terminal epidermal differentiation). The cells are then collected for analysis of target expression (mRNA) by real-time PCR. Total RNAs were extracted with TriPure Isolation Reagent® according to the supplier's instructions (Roche Life Science, Meylan, France). They were assayed with the Bioanalyser 2100 (Agilent Technologies, Les Ulis, France). The mRNAs were reverse transcribed into complementary DNA with oligo(dT) and Transcriptor Reverse Transcriptase. PCR was performed in the LightCycler® System according to the supplier's instructions (Roche). The PCR mix used is SYBR green I. The results were analyzed with Microsoft Excel®. The relative quantity is calculated for each gene by normalizing with two reference genes, ribosomal protein L13A (RPL13A) and TATA box binding protein (TBP).

[1] = tested on: DEGS2: sphingolipid C4-hydroxylase/delta-4 desaturase; assay: RT-qPCR gene expression in normal human keratinocytes: DEGS2; conditions: calcium chloride 1.5 mM, 48 h
Procedure: as §5

DEFB4A: β-defensin 2 = assay: RT-qPCR gene expression in normal human keratinocytes: DEFB4A; conditions: calcium chloride 1.5 mM, 48 h
Procedure: as §5

TGM1: transglutaminase 1 = assay: RT-qPCR gene expression in normal human keratinocytes: TGM1; conditions: calcium chloride 1.5 mM, 48 h
Procedure: as §5

CASP14: caspase 14 = assay: RT-qPCR gene expression in normal human keratinocytes: CASP14; conditions: calcium chloride 1.5 mM, 48 h
Procedure: as §5

[2] = tested on: FABP5: epidermal fatty acid binding protein; assay: RT-qPCR gene expression in normal human keratinocytes: FABP5; conditions: calcium chloride 1.5 mM, 48 h
Procedure: as §5

CDSN : corneodesmosin = assay: RT-qPCR gene expression in normal human keratinocytes: CDSN; conditions: calcium chloride 1.5 mM, 48 h
Procedure: as §5

FLG: filaggrin = assay: RT-qPCR gene expression in normal human keratinocytes: FLG; conditions: calcium chloride 1.5 mM, 48 h
Procedure: as §5

[3] = tested on: SULT2B1: cholesterol sulfotransferase; assay: RT-qPCR gene expression in normal human keratinocytes: SULT2B1; conditions: calcium chloride 1.5 mM, 48 h
Procedure: as §5

CLDN4: claudin 4 = assay: RT-qPCR gene expression in normal human keratinocytes: CLDN4; conditions: calcium chloride 1.5 mM, 48 h
Procedure: as §5

Structure (SMILES) | Production of IL-8 at 24 h Mean (IL-8) [pg/mL] | TSLP production at 24 h % Inh (TSLP) | TSLP production at 24 h Mean (TSLP) [pg/mL] | KLK7 Mean RQ (relative quantity) (KLK7: type 7 kallikrein) | DEGS2 Mean RQ (relative quantity) [1] | DEFB4A Mean RQ (relative quantity) (DEFB4A: β-defensin 2) | TGM1 Mean RQ (relative quantity) (TGM1: transglutaminase 1) | CASP14 Mean RQ (relative quantity) (CASP14: caspase 14) | FABP5 Mean RQ (relative quantity) [2] | CDSN Mean RQ (relative quantity) (CDSN : corneodesmosin) | FLG Mean RQ (relative quantity) (FLG: filaggrin) | SULT2B1 Mean RQ (relative quantity) [3] | CLDN4 Mean RQ (relative quantity) (CLDN4: claudin 4)
CO/C1=C\C(C)=C\[C@@H](C)[C@@H](O)[C@@H](C)C/C(C)=C/C=C/[C@H](OC)[C@@H]([C@@H](C)[C@@H](O)[C@H](C)[C@@]2(O)C[C@@H](O)[C@H](C)[C@@H](C(C)C)O2)OC1=O [Bafilomycin, bafilomycin, reference compound] | 26022 | 70* % | 81 | – | – | – | – | – | – | – | – | – | –
[Ca+2].[Cl-].[Cl-] [Calcium chloride] | – | – | – | 11.3 | 3.0 | 118.0 | 9.0 | 1.6 | 6.9 | 1.8 | 4.5 | 14.0 | 2.5
